# Measurements as given in patent publication US8058295B2, “Cystic fibrosis transmembrane conductance regulator protein inhibitors and uses thereof” (The Regents of the University of California, priority 2002, dated 2011).
# System: STa toxin-induced fluid secretion
# Set-up: species or system rats
# Conditions: rat, in vivo
smiles,measurement,value
"O=C(O)c1ccc(/C=C2\SC(=S)N(c3cccc(C(F)(F)F)c3)C2=O)cc1 [CFTRinh-172, 3-[(3-trifluoromethyl)phenyl]-5-[(4-carboxyphenyl)methylene]-2-thioxo-4-thiazolidinone]",inhibition of intestinal fluid secretion,~75%
